# Assay results reported in patent US20090118220A1, “SUBSTITUTED ADENINES AND THE USES THEREOF” (AstraZeneca AB, priority 2006, published 2009).
# Experiments:
# DNA ligase = DNA ligase FRET inhibition assay, isozyme not specified; format: biochemical
# Procedure: (§1) Compounds were tested for inhibition of DNA ligase using a Fluorescence Resonance Energy Transfer (FRET) detection assay as previously described (Chen et al. 2002. Analytical Biochemistry 309: 232-240; Benson et al. 2004. Analytical Biochemistry 324:298-300). Assays were performed in 384-well polystyrene flat-bottom black plates in 30 μl reactions containing 3 μl compound dissolved in dimethylsulfoxide, 20 μl 1.5× Enzyme Working Solution (25% glycerol, 45 mM potassium chloride, 45 mM ammonium sulfate, 15 mM dithiothreitol, 1.5 mM ethylenediaminetetraacetic acid (EDTA), 0.003% Brij 35, 75 mM MOPS pH 7.5, 150 nM bovine serum albumin, 1.5 μM NAD^+, 60 nM DNA substrate, 0.375 nM enzyme in water) and 7 μl 70 mM magnesium chlorine solution (96 mM magnesium chloride, 20% glycerol in water) to initiate the reaction. […] Plates were read in a Tecan Ultra plate reader at two separate wavelengths—Read 1: excitation 485, emission 535, Read 2: excitation 485, emission 595. […] Compound potency was based on IC50 measurements determined from reactions performed in the presence of ten different compound concentrations.
# Solubility is determined under assay conditions using a nephelometer to detect a change in turbidity as the concentration of compound increases. The limit of solubility is defined as the maximum concentration before a detectable increase in turbidity is measured.
# S. pneumoniae LigA = S. pneumoniae LigA (Streptococcus pneumoniae serotype 4, UniProt Q97QT2); assay: DNA ligase FRET inhibition assay; format: biochemical; details: FRET detection, ten compound concentrations; read-out: IC50 (μM) against S. pneumoniae LigA
# Procedure: as §1, with “reaction. The DNA substrate is similar to that described in Benson et al. (2004. Analytical Biochemistry 324:298-300).” for “reaction.”
# S. pneumoniae = assay: Bacterial susceptibility testing, microbroth dilution (NCCLS), MIC; format: cell-based; details: Streptococcus pneumoniae; lowest concentration able to reduce growth by 80% or more; read-out: MIC (μg/ml) against S. pneumoniae
# Procedure: Compounds were tested for antimicrobial activity by susceptibility testing using microbroth dilution methods recommended by NCCLS. Compounds were dissolved in dimethylsulfoxide and tested in 10 doubling dilutions in the susceptibility assays such that the final dimethylsulfoxide concentration in the assay was 2% (v/v). The organisms used in the assay were grown overnight on appropriate agar media and then suspended in the NCCLS-recommended liquid susceptibility-testing media. The turbidity of each suspension was adjusted to be equal to a 0.5 McFarland standard, a further 1-in-10 dilution was made into the same liquid medium to prepare the final organism suspension, and 100 μL of this suspension was added to each well of a microtiter plate containing compound dissolved in 2 μL of dimethylsulfoxide. Plates were incubated under appropriate conditions of atmosphere and temperature and for times according to NCCLS standard methods prior to being read. The Minimum Inhibitory Concentration (MIC) was determined as the lowest drug concentration able to reduce growth by 80% or more.
# Sequence of S. pneumoniae LigA (Q97QT2 whole entry): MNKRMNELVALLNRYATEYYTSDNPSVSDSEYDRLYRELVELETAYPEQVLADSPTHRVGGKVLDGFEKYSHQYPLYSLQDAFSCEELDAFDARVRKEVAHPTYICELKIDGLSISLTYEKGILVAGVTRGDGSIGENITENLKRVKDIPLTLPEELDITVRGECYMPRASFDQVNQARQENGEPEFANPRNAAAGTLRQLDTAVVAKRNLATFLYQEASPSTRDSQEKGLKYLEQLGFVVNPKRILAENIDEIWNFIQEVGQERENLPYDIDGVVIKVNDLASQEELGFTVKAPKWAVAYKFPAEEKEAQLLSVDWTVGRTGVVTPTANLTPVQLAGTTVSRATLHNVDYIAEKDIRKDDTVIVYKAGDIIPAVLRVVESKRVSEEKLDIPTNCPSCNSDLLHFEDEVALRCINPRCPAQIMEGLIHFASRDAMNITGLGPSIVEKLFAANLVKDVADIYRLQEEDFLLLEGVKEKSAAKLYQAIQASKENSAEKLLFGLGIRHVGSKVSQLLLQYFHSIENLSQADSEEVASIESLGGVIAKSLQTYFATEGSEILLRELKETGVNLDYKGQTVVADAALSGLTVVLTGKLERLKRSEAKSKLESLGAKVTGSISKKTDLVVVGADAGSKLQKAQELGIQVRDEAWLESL
SMILES,inhibition of the ligation reaction at the limit of solubility in the assay medium (DNA ligase),IC50 (S. pneumoniae LigA) [µM],further results
"Nc1nc(OC2CCCC2)nc2c1ncn2C1OCCC1(Cl)Cl (centres unmarked) [2-(cyclopentyloxy)-9-(3,3-dichlorotetrahydrofuran-2-yl)-9H-purin-6-amine]",approximately 12%,,
"C=C[C@]1(O)[C@H](O)[C@@H](C)O[C@H]1n1cnc2c(N)nc(OC3CCCC3)nc21 [(2R,3S,4R,5R)-2-(6-amino-2-(cyclopentyloxy)-9H-purin-9-yl)-5-methyl-3-vinyltetrahydrofuran-3,4-diol]",approximately 17%,,
"Nc1nc(OC2CCCC2)nc2c1ncn2[C@@H]1OC(CO)(CO)[C@@H](O)[C@H]1O [Example 12, (3S,4R,5R)-5-[6-amino-2-(cyclopentyloxy)-9H-purin-9-yl]-2,2-bis(hydroxymethyl)tetrahydrofuran-3,4-diol]",,,MIC (S. pneumoniae): 16 µg/mL

# Continued, in another order:
inhibition of the ligation reaction at the limit of solubility in the assay medium (DNA ligase),IC50 (S. pneumoniae LigA) [µM],SMILES,further results
,10,C[C@H]1O[C@@H](n2c(NCc3ccccc3)nc3c(N)nc(OC4CCCC4)nc32)[C@H](O)[C@@H]1O [Example 2],
,1,"Nc1nc(OC2CCCC2)nc2c1ncn2[C@@H]1OC(CF)(CF)[C@@H](O)[C@H]1O [Example 13, (3S,4R,5R)-5-[6-amino-2-(cyclopentyloxy)-9H-purin-9-yl]-2,2-bis(fluoromethyl)tetrahydrofuran-3,4-diol]",
